Assay results as given in patent publication US7396837B2, “Antitumoral analogs of lamellarins” (Pharma Mar, S.A.U., priority 2002, dated 2008).
Where two headings read alike, the source gives them in different places.

How the values were obtained:
Format in all cases: cell-based
IGROV = test: SRB colorimetric cell growth inhibition assay, IGROV
Outline: (§1)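 Continuous-exposure format, human tumour lines. SRB colour reaction quantifies growth/viability. Triplicate wells → mean ± SD → GI, TGI, LC.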

IGROV-ET = test: SRB colorimetric cell growth inhibition assay, IGROV-ET (ET-743 resistant); details: Homo sapiens; for GI50: GI=growth inhibition, read-out: GI50 IGROV-ET; for IC (TGI): TGI=total growth inhibition (cytostatic effect), read-out: TGI IGROV-ET; for CC50: LC=cell killing (cytotoxic effect)
Outline: as §1

K-562 = test: SRB colorimetric cell growth inhibition assay, K-562; details: Homo sapiens; for GI50: GI=growth inhibition, read-out: GI50 K-562; for IC (TGI): TGI=total growth inhibition (cytostatic effect), read-out: TGI K-562; for CC50: LC=cell killing (cytotoxic effect)
Outline: as §1

A-549 = test: SRB colorimetric cell growth inhibition assay, A-549; details: Homo sapiens; for GI50: GI=growth inhibition, read-out: GI50 A-549; for IC (TGI): TGI=total growth inhibition (cytostatic effect), read-out: TGI A-549; for CC50: LC=cell killing (cytotoxic effect)
Outline: as §1

SK-MEL-28 = test: SRB colorimetric cell growth inhibition assay, SK-MEL-28; details: Homo sapiens; for GI50: GI=growth inhibition, read-out: GI50 MEL-28; for CC50: LC=cell killing (cytotoxic effect); for IC (TGI): SK-MEL-28, MEL-28, TGI=total growth inhibition (cytostatic effect), read-out: TGI MEL-28
Outline: as §1

LoVo-Dox = test: SRB colorimetric cell growth inhibition assay, LoVo-Dox (MDR)
Outline: as §1

LoVo = test: SRB colorimetric cell growth inhibition assay, LoVo; details: Homo sapiens; for CC50: LC=cell killing (cytotoxic effect); for GI50: GI=growth inhibition, read-out: GI50 LOVO; for IC (TGI): TGI=total growth inhibition (cytostatic effect), read-out: TGI LOVO
Outline: as §1

HT-29 = test: SRB colorimetric cell growth inhibition assay, HT-29; details: Homo sapiens; for CC50: LC=cell killing (cytotoxic effect); for GI50 / IC (TGI): HT-29; for GI50: GI=growth inhibition, read-out: GI50 HT-29; for IC (TGI): TGI=total growth inhibition (cytostatic effect), read-out: TGI HT-29
Outline: as §1

SKOV-3 = test: SRB colorimetric cell growth inhibition assay, SKOV-3; details: Homo sapiens; for CC50: SK-OV-3, read-out: LC50 SKOV-3; for IC (TGI): TGI=total growth inhibition (cytostatic effect)
Source text: Inhibition of Cell Growth by Colorimetric Assay.
A colorimetric type of assay, using sulforhodamine B (SRB) reaction has been adapted for a quantitative measurement of cell growth and viability (following the technique described by P. A. Skehan, et al., J. Natl. Cancer Inst. 1990, 82, 1107-1112).
This form of assay employs 96 well cell culture microplates of 9 mm diameter (T. Mosmann et al., J. of Immunological Methods 1983, 65, 55-63; G. T. Faircloth et al., J. of Tissue and Culture Methods 1988, 11, 201-205).
Most of the cell lines are obtained from American Type Culture Collection (ATCC) derived from different human cancer types.
The values for mean +/− SD of data from triplicate wells are calculated. Some parameters for cellular responses can be calculated: GI=growth inhibition, TGI=total growth inhibition (cytostatic effect) and LC=cell killing (cytotoxic effect).

PANC-1 = test: SRB colorimetric cell growth inhibition assay, PANC-1; details: Homo sapiens; for IC (TGI): TGI=total growth inhibition (cytostatic effect), read-out: TGI PANC-1; for CC50: LC=cell killing (cytotoxic effect); for GI50: GI=growth inhibition, read-out: GI50 PANC-1
Outline: as §1

DU-145 = test: SRB colorimetric cell growth inhibition assay, DU-145; details: Homo sapiens; for CC50: LC=cell killing (cytotoxic effect); for GI50: GI=growth inhibition, read-out: GI50 DU-145; for IC (TGI): TGI=total growth inhibition (cytostatic effect), read-out: TGI DU-145
Outline: as §1

SK-BR-3 = test: SRB colorimetric cell growth inhibition assay, SK-BR-3; details: Homo sapiens; for CC50: LC=cell killing (cytotoxic effect); for GI50: GI=growth inhibition, read-out: GI50 SK-BR-3; for IC (TGI): TGI=total growth inhibition (cytostatic effect), read-out: TGI SK-BR-3
Outline: as §1

[1] = Homo sapiens, LOVO-DOX; GI=growth inhibition; read-out: GI50 LOVO-DOX

COc1cc(-c2c3c4cc(OC)c(OC(=O)[C@@H](N)CCCCNC(=O)OCc5ccccc5)cc4oc(=O)c3n3ccc4c(OC(=O)[C@@H](N)CCCCNC(=O)OCc5ccccc5)c(OC)c(OC)cc4c23)ccc1OC(=O)[C@@H](N)CCCCNC(=O)OCc1ccccc1 [Compound 44]
CC50 (IGROV; Homo sapiens, IGROV, read-out: LC50 IGROV, IGROV; LC=cell killing (cytotoxic effect)): 5.06 µM | GI50 (IGROV; Homo sapiens; IGROV; GI=growth inhibition; read-out: GI50 IGROV): 1.06 µM | IC (TGI) (IGROV; Homo sapiens; IGROV; TGI=total growth inhibition (cytostatic effect); read-out: TGI IGROV): 2.32 µM | GI50 (IGROV-ET; IGROV-ET): 1.18 µM | IC (TGI) (IGROV-ET; IGROV-ET): 3.58 µM | CC50 (IGROV-ET; read-out: LC50 IGROV-ET, IGROV-ET): 7.6 µM | GI50 (K-562; K562, K-562): 0.182 µM | IC (TGI) (K-562; K562, K-562): 0.686 µM | CC50 (K-562; K562, read-out: LC50 K-562, K-562): 5.36 µM | GI50 (A-549; A549, A-549): 5.44 µM | IC (TGI) (A-549; A549, A-549): 7.6 µM | CC50 (A-549; A549, read-out: LC50 A-549, A-549): 7.6 µM | GI50 (SK-MEL-28; SK-MEL-28, MEL-28): 0.48 µM | CC50 (SK-MEL-28; SK-MEL-28, read-out: LC50 MEL-28, MEL-28): 7.6 µM | IC (TGI) (SK-MEL-28): 3.21 µM | GI50 (LoVo-Dox; [1]): 0.608 µM | CC50 (LoVo-Dox; Homo sapiens, read-out: LC50 LOVO-DOX, LOVO-DOX; LC=cell killing (cytotoxic effect)): 7.6 µM | IC (TGI) (LoVo-Dox; Homo sapiens; LOVO-DOX; TGI=total growth inhibition (cytostatic effect); read-out: TGI LOVO-DOX): 2.51 µM | CC50 (LoVo; LoVo, read-out: LC50 LOVO, LOVO): 7.6 µM | GI50 (LoVo; LOVO): 0.374 µM | IC (TGI) (LoVo; LOVO): 3.18 µM | CC50 (HT-29; HT-29, read-out: LC50 HT-29, HT-29): 7.6 µM | GI50 (HT-29): 7.6 µM | IC (TGI) (HT-29): 7.6 µM | GI50 (SKOV-3; SK-OV-3, read-out: GI50 SKOV-3): 0.0988 µM | CC50 (SKOV-3): 7.6 µM | IC (TGI) (SKOV-3; SK-OV-3, read-out: TGI SKOV-3, SKOV-3): 1.15 µM | IC (TGI) (PANC-1; PANC-1, PANC-1): 4.35 µM | CC50 (PANC-1; PANC-1, read-out: LC50 PANC-1, PANC-1): 7.6 µM | GI50 (PANC-1; PANC-1): 1.17 µM | CC50 (DU-145; DU-145, read-out: LC50 DU-145, DU-145): 7.6 µM | GI50 (DU-145; DU-145): 0.0485 µM | IC (TGI) (DU-145; DU-145): 0.273 µM | CC50 (SK-BR-3; SK-BR-3, read-out: LC50 SK-BR-3, SK-BR-3): 7.6 µM | GI50 (SK-BR-3; SK-BR-3): 0.122 µM | IC (TGI) (SK-BR-3; SK-BR-3): 0.866 µM

COc1cc(-c2c3c4cc(OC)c(OC(=O)[C@@H](N)CC(C)C)cc4oc(=O)c3n3ccc4c(OC(=O)[C@@H](N)CC(C)C)c(OC)c(OC)cc4c23)ccc1OC(=O)[C@@H](N)CC(C)C [Compound 45]
GI50 (IGROV; Homo sapiens, IGROV; GI=growth inhibition; read-out: GI50 IGROV): 1.57 µM | CC50 (IGROV; Homo sapiens, IGROV; LC=cell killing (cytotoxic effect); read-out: LC50 IGROV): 10.9 µM | IC (TGI) (IGROV; Homo sapiens, IGROV; TGI=total growth inhibition (cytostatic effect); read-out: TGI IGROV): 4.12 µM | GI50 (IGROV-ET; IGROV-ET): 2.58 µM | CC50 (IGROV-ET; IGROV-ET, read-out: LC50 IGROV-ET): 11.5 µM | IC (TGI) (IGROV-ET; IGROV-ET): 8.07 µM | GI50 (K-562; K562, K-562): 0.315 µM | CC50 (K-562; K562, K-562, read-out: LC50 K-562): 8.79 µM | IC (TGI) (K-562; K562, K-562): 1.73 µM | GI50 (A-549; A549, A-549): 4.35 µM | CC50 (A-549; A549, A-549, read-out: LC50 A-549): 11.5 µM | IC (TGI) (A-549; A549, A-549): 11.5 µM | GI50 (SK-MEL-28; SK-MEL-28, MEL-28): 0.898 µM | CC50 (SK-MEL-28; SK-MEL-28, MEL-28, read-out: LC50 MEL-28): 11.5 µM | IC (TGI) (SK-MEL-28): 11.5 µM | GI50 (LoVo-Dox; [1]): 0.778 µM | CC50 (LoVo-Dox; Homo sapiens, LOVO-DOX; LC=cell killing (cytotoxic effect); read-out: LC50 LOVO-DOX): 11.5 µM | IC (TGI) (LoVo-Dox; Homo sapiens, LOVO-DOX; TGI=total growth inhibition (cytostatic effect); read-out: TGI LOVO-DOX): 4.51 µM | GI50 (LoVo; LoVo): 0.771 µM | CC50 (LoVo; LoVo, read-out: LC50 LOVO): 11.5 µM | IC (TGI) (LoVo; LoVo): 6.71 µM | CC50 (HT-29; HT-29, HT-29, read-out: LC50 HT-29): 11.5 µM | GI50 (HT-29): 11.5 µM | IC (TGI) (HT-29): 11.5 µM | GI50 (SKOV-3; SK-OV-3, SKOV-3, GI=growth inhibition, read-out: GI50 SKOV-3): 0.175 µM | CC50 (SKOV-3): 11.5 µM | IC (TGI) (SKOV-3; SK-OV-3, SKOV-3, read-out: TGI SKOV-3): 2.2 µM | GI50 (PANC-1; PANC-1, PANC-1): 2.03 µM | CC50 (PANC-1; PANC-1, PANC-1, read-out: LC50 PANC-1): 11.5 µM | IC (TGI) (PANC-1; PANC-1, PANC-1): 9.75 µM | GI50 (DU-145; DU-145, DU-145): 0.105 µM | CC50 (DU-145; DU-145, DU-145, read-out: LC50 DU-145): 11.5 µM | IC (TGI) (DU-145; DU-145, DU-145): 0.549 µM | GI50 (SK-BR-3; SK-BR-3, SK-BR-3): 0.414 µM | CC50 (SK-BR-3; SK-BR-3, SK-BR-3, read-out: LC50 SK-BR-3): 11.5 µM | IC (TGI) (SK-BR-3; SK-BR-3, SK-BR-3): 1.58 µM
